Entries after “also recorded” stand apart in the source; their conditions may differ.
What was measured:
[1] = test system: HSV-1; conditions: in vitro; Can. J. Chem. 74, 1609, 1996; cited from earlier work
[2] = test system: HSV-2; conditions: in vitro; Can. J. Chem. 74, 1609, 1996; cited from earlier work
[3] = test system: CMV; conditions: in vitro; Can. J. Chem. 74, 1609, 1996; cited from earlier work
[4] = test system: VZV; conditions: in vitro; Can. J. Chem. 74, 1609, 1996; cited from earlier work
[5] = test system: Varicella zoster virus (VZV); conditions: said in WO 98/49177; cited from earlier work
[6] = test system: CMV; conditions: said in WO 98/49177; cited from earlier work
[7] = test system: CMV strain Davis; assay: CMV strain Davis induced cytopathicity in HEL cells; assay type: cell-based, cytomegalo virus; conditions: Human betaherpesvirus 5, 168 h, 50% reduction of virus induced cytopathicity, 7 days post infection
Method: (§1) Each of the products of Examples 1 to 9 was tested in vitro in tissue cultures for toxicity and for potent antiviral actions with respect to cytomegalo virus (CMV). EC50/μM CMV Davis is the drug concentration in μM required to reduce by 50% CMV strain Davis induced cytopathicity in human embryonic lung fibroblast (HEL) cells measured 7 days post infection compared to untreated control. Further details of the methodology employed can be found in McGuigan et al. J. Med. Chem., 1999, 42, 4479-4484.

[8] = concentration required to reduce the cell number by 50%; assay type: cell-based; conditions: human, human embryonic lung cells; concentration reducing the cell number by 50%
Method: (§2) Each of the products of Examples 1 to 9 was tested in vitro in tissue cultures for toxicity and for potent antiviral actions with respect to cytomegalo virus (CMV). CC50/μM is the compound concentration required to reduce the cell number by 50%. Further details of the methodology employed can be found in McGuigan et al. J. Med. Chem., 1999, 42, 4479-4484.

[9] = test system: human embryonic lung cells; assay: minimum cytotoxic concentration to human embryonic lung cells; assay type: cell-based; conditions: for MCC/μM: minimum cytotoxic concentration, human embryonic lung cells; for toxicity (in words): summary of the table data
Method: as §2, with “MCC/μM” for “CC50/μM”, “minimum cytotoxic” for “compound”, “concentration” for “concentration required”, “human embryonic lung cells.” for “reduce the cell number by 50%.”

[10] = test system: CMV strain AD169; assay: CMV strain AD169 induced cytopathicity in HEL cells; assay type: cell-based, cytomegalo virus; conditions: Human betaherpesvirus 5, AD169, 168 h, 50% reduction of virus induced cytopathicity, 7 days post infection
Method: as §1, with “CMV-AD169” for “CMV Davis”, “AD169” for “Davis”

[11] = test system: cytomegalo virus (CMV); assay: anti-CMV activity in tissue culture, summary in words of the table; assay type: cell-based; conditions: for anti-CMV activity (in words): summary of the table data, comparison with Ganciclovir
Method: Each of the products of Examples 1 to 9 was tested in vitro in tissue cultures for toxicity and for potent antiviral actions with respect to cytomegalo virus (CMV). EC50/μM CMV-AD169 is the drug concentration in μM required to reduce by 50% CMV strain AD169 induced cytopathicity in human embryonic lung fibroblast (HEL) cells measured 7 days post infection compared to untreated control. EC50/μM CMV Davis is the drug concentration in μM required to reduce by 50% CMV strain Davis induced cytopathicity in human embryonic lung fibroblast (HEL) cells measured 7 days post infection compared to untreated control.

[12] = test system: VZV OKA strain; assay: VZV OKA strain induced cytopathicity in HEL cells; assay type: cell-based, Varicella zoster virus; conditions: Human alphaherpesvirus 3, HEL, 168 h, read-out: EC50 VZV OKA strain
Method: (§3) The compound of Example 3 wherein R is -nC10H21 was tested to assess its potency against VZV. Employing the equivalent EC50 assay as set out above, namely a measurement of the drug concentration required to reduce by 50% the VZV induced cytopathicity in human embryonic fibroblast (HEL) measured 7 days post infection, a concentration of 40 μM was found with respect to VZV OKA strain and a concentration of 20 μM was measured with respect to VZV YS strain.

[13] = test system: VZV YS strain; assay: VZV YS strain induced cytopathicity in HEL cells; assay type: cell-based, Varicella zoster virus; conditions: Human alphaherpesvirus 3, 168 h, 50% reduction of VZV induced cytopathicity, 7 days post infection
Method: as §3

O=c1nc2occc2cn1C1CC(O)C(CO)O1 (centres unmarked)
activity against HSV-1 (in words) [1]: inactive | activity against HSV-2 (in words) [2]: inactive | activity against CMV (in words) [3]: inactive | activity against VZV (in words) [4]: inactive

CCCCCCCCCCc1cc2cn([C@H]3C[C@H](O)[C@@H](CO)O3)c(=O)nc2o1 [3-(2′-deoxy-β-D-ribofuranosyl)-6-decyl-2,3-dihydrofuro[2,3-d]pyrimidin-2-one]
anti-Varicella zoster virus (VZV) activity (in words) [5]: potent

O=c1nc2oc(CCCCCCCCCCl)cc2cn1C1CC(O)C(CO)O1 (centres unmarked) [6-(9-chlorononyl)-3-(4-hydroxy-5-(hydroxymethyl)tetrahydro-2-furanyl)-2,3-dihydrofuro[2,3,-d] pyrimidin-2-one]
anti-CMV activity (in words) [6]: demonstrate anti-CMV activity

CCCCCCc1cc2cn(C3CCC(CO)O3)c(=O)nc2o1 [Example 1, 3-[2′,3′-dideoxy-ribo-β-D-furanosyl]-6-hexyl-2,3-dihydrofuro[2,3-d]pyrimidin-2-one]
EC50 [7]: > 50 µM | CC50 [8]: 143 µM | MCC/μM [9]: 200 µM | EC50 [10]: 32 µM

CCCCCCCCc1cc2cn(C3CCC(CO)O3)c(=O)nc2o1 [Example 2, 3-[2′3′-dideoxy-ribo-β-D-furanosyl]-6-octyl-2,3-dihydrofuro[2,3-d]pyrimidin-2-one]
EC50 [7]: 2.4 µM | CC50 [8]: 112 µM | anti-CMV activity (in words) [11]: potent anti-CMV activity | MCC/μM [9]: 20 µM | toxicity (in words) [9]: toxicity greater than any of the compounds of Examples 1, 3, 4, 5 and 6 | EC50 [10]: 1.5 µM

CCCCCCCCCCc1cc2cn(C3CCC(CO)O3)c(=O)nc2o1 [Example 3, 3-[2′,3′-dideoxy-ribo-β-D-furanosyl]-6-decyl-2,3-dihydrofuro[2,3-d]pyrimidin-2-one]
EC50 [7]: 3.2 µM | EC50 [12]: 40 µM | CC50 [8]: > 200 µM | activity against CMV compared with VZV (in words) ([11]; CMV versus VZV EC50): substantially more active against CMV, than against VZV | anti-CMV activity (in words) [11]: at least comparable to that of the known drug Ganciclovir | MCC/μM [9]: >200 µM | toxicity (in words) [9]: acceptable level of toxicity | EC50 [13]: 20 µM | EC50 [10]: 2.6 µM

CCCCCCCCCCCCc1cc2cn(C3CCC(CO)O3)c(=O)nc2o1 [Example 4, 3-[2′,3′-dideoxy-ribo-β-D-furanosyl]-6-dodecyl-2,3-dihydrofuro[2,3-d]pyrimidin-2-one]
EC50 [7]: 5 µM | CC50 [8]: > 200 µM | anti-CMV activity (in words) [11]: at least comparable to that of the known drug Ganciclovir | MCC/μM [9]: 200 µM | toxicity (in words) [9]: acceptable level of toxicity | EC50 [10]: 3.7 µM

CCCCCCCCCCCCCCc1cc2cn(C3CCC(CO)O3)c(=O)nc2o1 [Example 5, 3-[2′,3′-dideoxy-ribo-β-D-furanosyl]-6-tetradecyl-2,3-dihydrofuro[2,3-d]pyrimidin-2-one]
EC50 [7]: 40 µM | CC50 [8]: > 200 µM | MCC/μM [9]: 200 µM | EC50 [10]: 25 µM

CCCCCCCCCc1cc2cn(C3CCC(CO)O3)c(=O)nc2o1 [Example 6, 3-[2′,3′-dideoxy-ribo-β-D-furanosyl]-6-nonyl-2,3-dihydrofuro[2,3-d]pyrimidin-2-one]
EC50 [7]: 1.3 µM | CC50 [8]: > 200 µM | anti-CMV activity (in words) [11]: potent anti-CMV activity; also recorded: at least comparable to that of the known drug Ganciclovir | MCC/μM [9]: 200 µM | toxicity (in words) [9]: acceptable level of toxicity | EC50 [10]: 1.2 µM

CCCCCCCCCCCc1cc2cn(C3CCC(CO)O3)c(=O)nc2o1 [Example 7, 3-[2′,3′-dideoxy-ribo-β-D-furanosyl]-6-undecyl-2,3-dihydrofuro[2,3-d]pyrimidin-2-one]
EC50 [7]: 1.2 µM | CC50 [8]: > 200 µM | anti-CMV activity (in words) [11]: potent anti-CMV activity | MCC/μM [9]: 50 µM | toxicity (in words) [9]: toxicity greater than any of the compounds of Examples 1, 3, 4, 5 and 6 | EC50 [10]: 1.4 µM

CCCCOCCCCCCCCCc1cc2cn(C3CCC(CO)O3)c(=O)nc2o1 [Example 8, 3-(2′-3′-Dideoxy-β-D-ribofuranosyl)-6-[9-butyloxynonyl]-2,3-dihydrofuro[2,3-d]pyrimidin-2-one]
EC50 [7]: 1 µM | CC50 [8]: 200 µM | anti-CMV activity (in words) [11]: potent anti-CMV activity | MCC/μM [9]: 5 µM | toxicity (in words) [9]: toxicity greater than any of the compounds of Examples 1, 3, 4, 5 and 6 | EC50 [10]: 1.2 µM

O=c1nc2oc(CCCCCCCCCOCCCCCl)cc2cn1C1CCC(CO)O1 [Example 9, 3-(2′-3′-Dideoxy-β-D-ribofuranosyl)-6-[9-(4-chlorobutoxy)nonyl]-2,3-dihydrofuro[2,3-d]pyrimidin-2-one]
EC50 [7]: 1 µM | CC50 [8]: > 200 µM | anti-CMV activity (in words) [11]: potent anti-CMV activity | MCC/μM [9]: 20 µM | toxicity (in words) [9]: toxicity greater than any of the compounds of Examples 1, 3, 4, 5 and 6 | EC50 [10]: 2.6 µM

Nc1nc(O)c2ncn(COC(CO)CO)c2n1 [Ganciclovir, reference compound]
EC50 [7]: 3.4 µM | MCC/μM [9]: >150 µM | EC50 [10]: 2.6 µM
